Test results from ChEMBL document CHEMBL1201861, “Genomics of Drug Sensitity in Cancer screening data, Wellcome Trust Sanger Institute”.

How the values were obtained:
Assay in all cases: cells
SHP77 = type: functional, cell-based, Homo sapiens, SHP-77; details: Homo sapiens, SHP77;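 also: growth inhibition of human SHP-77 cells measured by a cell viability assay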
Description: SANGER: Inhibition of human SHP-77 cell growth in a cell viability assay.

LB1047-RCC = type: functional, cell-based, Homo sapiens; details: Homo sapiens, LB1047-RCC;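 also: inhibition of cell growth, determined with a cell viability assay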
Description: SANGER: Inhibition of human LB1047-RCC cell growth in a cell viability assay.

ES7 = type: functional, cell-based, Homo sapiens; details: Homo sapiens, ES7;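 also: growth inhibition of cultured human ES7 cells, read out as cell viability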
Description: SANGER: Inhibition of human ES7 cell growth in a cell viability assay.

ES8 = type: functional, cell-based, Homo sapiens; details: Homo sapiens, ES8;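 also: growth inhibition of human ES8 cells, read out with a cell viability assay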
Description: SANGER: Inhibition of human ES8 cell growth in a cell viability assay.

EM-2 = type: functional, cell-based, Homo sapiens; details: Homo sapiens, EM-2;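 also: growth inhibition of EM-2 cells, read out with a cell viability assay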
Description: SANGER: Inhibition of human EM-2 cell growth in a cell viability assay.

NCI-H1648 = type: functional, cell-based, Homo sapiens; details: Homo sapiens, NCI-H1648;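 also: cell viability assay measuring inhibition of NCI-H1648 cell growth, from the Sanger screening data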
Description: SANGER: Inhibition of human NCI-H1648 cell growth in a cell viability assay.

EW-13 = type: functional, cell-based, Homo sapiens; details: Homo sapiens, EW-13;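 also: growth inhibition of EW-13 cells, read out with a cell viability assay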
Description: SANGER: Inhibition of human EW-13 cell growth in a cell viability assay.

NMC-G1 = type: functional, cell-based, Homo sapiens; details: Homo sapiens, NMC-G1;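 also: growth inhibition of the NMC-G1 cell line, measured with a cell viability read-out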
Description: SANGER: Inhibition of human NMC-G1 cell growth in a cell viability assay.

A4-Fuk = type: functional, cell-based, Homo sapiens; details: Homo sapiens, A4-Fuk;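 also: growth inhibition of A4-Fuk cells, read out by a cell viability assay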
Description: SANGER: Inhibition of human A4-Fuk cell growth in a cell viability assay.

NCI-H209 = type: functional, cell-based, Homo sapiens; details: Homo sapiens, NCI-H209;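 also: growth inhibition of human NCI-H209 cells, measured by a cell viability assay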
Description: SANGER: Inhibition of human NCI-H209 cell growth in a cell viability assay.

EW-16 = type: functional, cell-based, Homo sapiens; details: Homo sapiens, EW-16;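 also: growth inhibition of human EW-16 cells, read out as cell viability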
Description: SANGER: Inhibition of human EW-16 cell growth in a cell viability assay.

A498 = type: functional, cell-based, Homo sapiens; details: Homo sapiens, A498;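 also: growth inhibition of human A498 cells, read out with a cell viability assay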
Description: SANGER: Inhibition of human A498 cell growth in a cell viability assay.

GI-ME-N = type: functional, cell-based, Homo sapiens; details: Homo sapiens, GI-ME-N;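 also: growth inhibition of human GI-ME-N cells, read out with a cell viability assay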
Description: SANGER: Inhibition of human GI-ME-N cell growth in a cell viability assay.

COLO-829 = type: functional, cell-based, Homo sapiens; details: Homo sapiens, COLO-829
Description: SANGER: Inhibition of human COLO-829 cell growth in a cell viability assay.

TE-9 = type: functional, cell-based, Homo sapiens; details: Homo sapiens, TE-9;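 also: cell growth inhibition, measured with a cell viability readout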
Description: SANGER: Inhibition of human TE-9 cell growth in a cell viability assay.

GOTO = type: functional, cell-based, Homo sapiens; details: Homo sapiens, GOTO;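 also: growth inhibition of GOTO cells, read out by a cell viability assay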
Description: SANGER: Inhibition of human GOTO cell growth in a cell viability assay.

IA-LM = type: functional, cell-based, Homo sapiens; details: Homo sapiens, IA-LM;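 also: cell viability assay measuring growth inhibition of human IA-LM cells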
Description: SANGER: Inhibition of human IA-LM cell growth in a cell viability assay.

SW 962 = type: functional, cell-based, Homo sapiens; details: Homo sapiens, SW 962;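 also: growth inhibition of human SW962 cells, read out by a cell viability assay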
Description: SANGER: Inhibition of human SW962 cell growth in a cell viability assay.

SF-126 = type: functional, cell-based, Homo sapiens; details: Homo sapiens, SF-126;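 also: growth inhibition of human SF126 cells, read out with a cell viability assay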
Description: SANGER: Inhibition of human SF126 cell growth in a cell viability assay.

ES1 = type: functional, cell-based, Homo sapiens; details: Homo sapiens, ES1;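 also: growth inhibition of ES1 cells, read out with a cell viability assay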
Description: SANGER: Inhibition of human ES1 cell growth in a cell viability assay.

ML-2 = type: functional, cell-based, Homo sapiens; details: Homo sapiens, ML-2;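 also: growth inhibition of ML-2 cells, measured with a cell viability readout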
Description: SANGER: Inhibition of human ML-2 cell growth in a cell viability assay.

KGN = type: functional, cell-based, Homo sapiens; details: Homo sapiens, KGN;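 also: growth inhibition of KGN cells, read out with a cell viability assay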
Description: SANGER: Inhibition of human KGN cell growth in a cell viability assay.

D-502MG = type: functional, cell-based, Homo sapiens; details: Homo sapiens, D-502MG
Description: SANGER: Inhibition of human D-502MG cell growth in a cell viability assay.

ETK-1 = type: functional, cell-based, Homo sapiens; details: Homo sapiens, ETK-1;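 also: growth inhibition of human ETK-1 cells, read out with a cell viability assay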
Description: SANGER: Inhibition of human ETK-1 cell growth in a cell viability assay.

A388 = type: functional, cell-based, Homo sapiens; details: Homo sapiens, A388;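 also: growth inhibition of human A388 cells, read out with a cell viability assay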
Description: SANGER: Inhibition of human A388 cell growth in a cell viability assay.

NCI-H82 = type: functional, cell-based, Homo sapiens; details: Homo sapiens, NCI-H82;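 also: growth inhibition of NCI-H82 cells, measured with a cell viability readout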
Description: SANGER: Inhibition of human NCI-H82 cell growth in a cell viability assay.

RKO = type: functional, cell-based, Homo sapiens; details: Homo sapiens, RKO;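 also: growth inhibition of human RKO cells, read out with a cell viability assay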
Description: SANGER: Inhibition of human RKO cell growth in a cell viability assay.

HCC1187 = type: functional, cell-based, Homo sapiens; details: Homo sapiens, HCC1187;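 also: growth inhibition of HCC1187 cells, read out with a cell viability assay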
Description: SANGER: Inhibition of human HCC1187 cell growth in a cell viability assay.

LB2241-RCC = type: functional, cell-based, Homo sapiens; details: Homo sapiens, LB2241-RCC;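 also: cell viability assay measuring how strongly the cultured human renal carcinoma line is prevented from growing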
Description: SANGER: Inhibition of human LB2241-RCC cell growth in a cell viability assay.

DOHH-2 = type: functional, cell-based, Homo sapiens; details: Homo sapiens, DOHH-2;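 also: growth inhibition of human DOHH-2 cells, read out with a cell viability assay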
Description: SANGER: Inhibition of human DOHH-2 cell growth in a cell viability assay.

IST-SL1 = type: functional, cell-based, Homo sapiens; details: Homo sapiens, IST-SL1;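 also: growth inhibition of human IST-SL1 cells, read out with a cell viability assay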
Description: SANGER: Inhibition of human IST-SL1 cell growth in a cell viability assay.

NB6 = type: functional, cell-based, Homo sapiens; details: Homo sapiens, NB6;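 also: growth inhibition of NB6 cells, read out by a cell viability assay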
Description: SANGER: Inhibition of human NB6 cell growth in a cell viability assay.

Becker = type: functional, cell-based, Homo sapiens; details: Homo sapiens, Becker;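 also: growth inhibition of Becker cells, read out with a cell viability assay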
Description: SANGER: Inhibition of human Becker cell growth in a cell viability assay.

JVM-3 = type: functional, cell-based, Homo sapiens; details: Homo sapiens, JVM-3;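 also: growth inhibition of human JVM-3 cells, read out with a cell viability assay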
Description: SANGER: Inhibition of human JVM-3 cell growth in a cell viability assay.

ALL-PO = type: functional, cell-based, Homo sapiens; details: Homo sapiens, ALL-PO;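 also: growth inhibition of ALL-PO cells, read out by a cell viability assay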
Description: SANGER: Inhibition of human ALL-PO cell growth in a cell viability assay.

HT-144 = type: functional, cell-based, Homo sapiens; details: Homo sapiens, HT-144
Description: SANGER: Inhibition of human HT-144 cell growth in a cell viability assay.

HL-60 = type: functional, cell-based, Homo sapiens; details: Homo sapiens, HL-60;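 also: growth inhibition of human HL-60 cells, read out with a cell viability assay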
Description: SANGER: Inhibition of human HL-60 cell growth in a cell viability assay.

HH = type: functional, cell-based, Homo sapiens; details: Homo sapiens, HH
Description: SANGER: Inhibition of human HH cell growth in a cell viability assay.

TGW = type: functional, cell-based, Homo sapiens; details: Homo sapiens, TGW;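 also: growth inhibition of human TGW cells, read out with a cell viability assay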
Description: SANGER: Inhibition of human TGW cell growth in a cell viability assay.

KM-H2 = type: functional, cell-based, Homo sapiens; details: Homo sapiens, KM-H2;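 also: growth inhibition of KM-H2 cells, read out by a cell viability assay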
Description: SANGER: Inhibition of human KM-H2 cell growth in a cell viability assay.

NCI-H1092 = type: functional, cell-based, Homo sapiens; details: Homo sapiens, NCI-H1092;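 also: cell growth inhibition measured with a cell viability assay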
Description: SANGER: Inhibition of human NCI-H1092 cell growth in a cell viability assay.

EW-3 = type: functional, cell-based, Homo sapiens; details: Homo sapiens, EW-3;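 also: cell viability assay read-out, IC50 reflects inhibition of growth of the EW-3 cells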
Description: SANGER: Inhibition of human EW-3 cell growth in a cell viability assay.

K5 = type: functional, cell-based, Homo sapiens; details: Homo sapiens, K5
Description: SANGER: Inhibition of human K5 cell growth in a cell viability assay.

NCI-H1650 = type: functional, cell-based, Homo sapiens; details: Homo sapiens, NCI-H1650;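 also: growth inhibition of human NCI-H1650 cells measured by a cell viability assay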
Description: SANGER: Inhibition of human NCI-H1650 cell growth in a cell viability assay.

HCE-4 = type: functional, cell-based, Homo sapiens; details: Homo sapiens, HCE-4;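 also: cell viability assay measuring inhibition of growth in the human HCE-4 cell line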
Description: SANGER: Inhibition of human HCE-4 cell growth in a cell viability assay.

AM-38 = type: functional, cell-based, Homo sapiens; details: Homo sapiens, AM-38;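 also: growth inhibition of AM-38 cells of human origin, read out by a cell viability assay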
Description: SANGER: Inhibition of human AM-38 cell growth in a cell viability assay.

SK-N-DZ = type: functional, cell-based, Homo sapiens; details: Homo sapiens, SK-N-DZ;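 also: growth inhibition of the cancer cell line, read out through a viability assay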
Description: SANGER: Inhibition of human SK-N-DZ cell growth in a cell viability assay.

GR-ST = type: functional, cell-based, Homo sapiens; details: Homo sapiens, GR-ST
Description: SANGER: Inhibition of human GR-ST cell growth in a cell viability assay.

Measured: IC50

COc1cc2c(Nc3ccc(NC(=O)c4ccccc4)cc3)ncnc2cc1OCCCN1CCOCC1
2.67 µM: ALL-PO
1.4 µM: DOHH-2
0.707 µM: RKO
2.64 µM: COLO-829
2.75 µM: JVM-3
3.5 µM: A388
0.498 µM: ES8
1.32 µM: IST-SL1
1.42 µM: EM-2
1.17 µM: NCI-H209
3.77 µM: A4-Fuk
2.59 µM: HL-60
1.04 µM: LB2241-RCC
2.37 µM: A498
3.23 µM: EW-16
3.97 µM: D-502MG
1.77 µM: ES1
> 4 µM: all other assays above

Cn1cnc2c(F)c(Nc3ccc(Br)cc3Cl)c(C(=O)NOCCO)cc21 [SELUMETINIB]
0.248 µM: RKO
0.294 µM: ML-2
0.701 µM: JVM-3
2.93 µM: EW-3
0.512 µM: EM-2
0.79 µM: LB2241-RCC
0.089 µM: HT-144
0.0246 µM: HL-60
not listed: NCI-H1648 | COLO-829 | K5
> 4 µM: all other assays above
